Measurements from patent US20260001828A1, “BIOBASED SURFACTANT AND ANTIOXIDANT” (BLOOM BIORENEWABLES SA, priority 2022, published 2026).

Assays:
[1] = Surface tension by pendant drop method, water/air interface; assay type: physicochemical
Experimental: Surface tension measurements were performed using the pendant drop method by Kruss EasyDrop Standard drop shape analysis system. […]

[2] = DPPH free radical antioxidant activity test (UV/visible spectrophotometry, 517 nm); assay type: biochemical
Experimental: The antioxidant activity is assessed by measuring the capacity of the compound to react with a free radical (here 2,2-diphenyl-1-picrylhydrazyl also known as DPPH). […] Butylated hydroxytoluene (BHT) and vitamin E were used as […] substances (positive control) and glycerol as negative control (see FIGS. 3 and 4).

| Molecule | Water/air interface (surface tension) ([1]; concentration 0.10 wt %) [mN/m] | inhibition rate ([2]; concentration of 5 μg/mL) [%] | inhibition rate ([2]; concentration of 10 μg/mL) [%] | inhibition rate ([2]; concentration of 50 μg/mL) [%] | other results |
| --- | --- | --- | --- | --- | --- |
| CCCc1cc(OC)c([O-])c(OC)c1.[Na+] [PSNa, 4-propylsyringol sodium salt] | 45.1 |  |  |  | Water/air interface (surface tension) ([1]; concentration 0.50 wt %): 39.8 mN/m; Water/air interface (surface tension) ([1]; concentration 1.00 wt %): 33.8 mN/m |
| vitamin E |  | 28 | 61 | 84 |  |
| Cc1cc(C(C)(C)C)c(O)c(C(C)(C)C)c1 [BHT, Butylated hydroxytoluene] |  | 32 | 54 | 85 |  |
| sodium lauryl ether sulfate [SLES] |  |  |  |  | Water/air interface (surface tension) ([1]; concentration 0.02 wt %): 33.8 mN/m |
| nonylphenol ethoxylate [NPE] |  |  |  |  | Water/air interface (surface tension) ([1]; concentration 0.02 wt %): 36 mN/m |
| CCCCCCCCCCCCOS(=O)(=O)[O-].[Na+] [SLS, sodium lauryl sulfate] |  |  |  |  | Water/air interface (surface tension) ([1]; concentration 0.20 wt %): 35.4 mN/m |
| CCCCC(CC)COC(=O)CC(C(=O)OCC(CC)CCCC)S(=O)(=O)[O-].[Na+] (centres unmarked) [DOSS, Dioctyl Sodium Sulfosuccinate] |  |  |  |  | Water/air interface (surface tension) ([1]; concentration 0.20 wt %): 51 mN/m |

Now from value to molecule, other results behind:

| Water/air interface (surface tension) ([1]; concentration 0.10 wt %) [mN/m] | Molecule | inhibition rate ([2]; concentration of 5 μg/mL) [%] | inhibition rate ([2]; concentration of 10 μg/mL) [%] | inhibition rate ([2]; concentration of 50 μg/mL) [%] | other results |
| --- | --- | --- | --- | --- | --- |
| 48.3 | CCCc1cc(OC)c(O)c(OC)c1 [4-propylsyringol] | 65 | 84 | 85 | Water/air interface (surface tension) ([1]; concentration 0.50 wt %): 34.9 mN/m; Water/air interface (surface tension) ([1]; concentration 1.00 wt %): 32.3 mN/m |
| 33 | Sodium linear alkylbenzenesulfonate [NaLAS] |  |  |  |  |
